Consider six molecules from patent publication US20040143025A1, “Carbon monoxide generating compunds for treatment of vascular, inflammatory and immune disorders” (priority 2002, published 2004).

Series [1] deals with rat liver. On the set-up: species or system Sprague Dawley (SD) rats. The following applies: 2 h reperfusion, inhibitor given together with CO 300 ppm; for bile production / portal vein resistance: compared with CO alone. An excerpt: Animals. Male Sprague Dawley (SD) rats weighing between 300-350 g (Harlan Sprague Dawley, Indianapolis, Ind.) were used. Animals were fed standard rodent chow and water and libitum and cared according to guidelines approved by the American Association of Laboratory Animal Care.
Isolated perfusion liver apparatus. An isolated perfusion liver apparatus was used, as described in Amersi et al., supra, and Maulik et al., Circulation 94:398-406 (1996). In brief, syngeneic rat blood, obtained for each experiment from four donor animals, was diluted to a hematocrit of 15% with Krebs Ringer Bicarbonate Buffer (mM: NaCl 118, KH2POF 1, MgSO4 0.9, CaCl2 2.5, dextrose 11.1, and NaHCO2 25), and maintained at pH of 7.4. The perfusate was pumped from a heated reservoir that warmed the perfusate to 37° C. through silastic tubing oxygenator connected to a flow meter that measured portal vein blood flow (Cole Palmer Instruments, Chicago, Ill.). Portal pressure was kept constant via a pressure monometer connected to a T fitting in the portal vein canula. […] During the experiment, pH, temperature and oxygenation were kept constant.
Ex vivo cold ischemia model. SD rats underwent isoflourane anesthesia and systemic heparinization. […] The livers were then stored for 24 h at 4° C. in UW solution, followed by ex-vivo reperfusion for 1-2 h on an isolated perfusion liver apparatus. Portal vein blood flow, pressure, and bile production were recorded every 30 min. Blood samples were collected at 30 min intervals and serum glutamic oxaloacetic transaminase (sGOT) levels were measured using an autoanalyzer from ANTECH Diagnostics (Irvine, Calif.). At the conclusion of experiment, a portion of the liver was snap frozen for mRNA extraction/Western blot analyses; the remaining samples were fixed in formalin for H&E staining.
The role of CO—HO-1 pathway in hepatic I/R injury was studied in five major treatment groups (n=4.8 rats/group). In Group 1, the extent of I/R injury was contrasted between livers perfused ex-vivo with blood saturated with CO (300 parts per million [ppm]; 0.03% balanced air) vs. air alone (21% O2). As NO may enhance HO-1 expression (Brouard et al., supra), we then investigated a link between the two gaseous molecules in Group 2 livers, which were perfused with CO supplemented with 25 mM NG-nitro-L-arginine methyl ester hydrochloride (L-NAME; Sigma Chemicals, St. Louis, Mo.), an inducible NO inhibitor. […] To analyze as to whether exogenous CO can substitute for HO-1 in preventing I/R insult, Group 4 rats were treated 24 h prior to liver procurement with ZnPP)(1.5 mg/kg/i.p; Porphyrin Products, Logan Utah), an HO-1 inhibitor, followed by ex vivo perfusion with CO. […] Brouard et al., supra. Therefore, Group 5 rats were pre-treated 60 min before harvest with p38 MAPK inhibitor, SB203580, a pyridinyl imidazol (25 mg/kg orally; Sigma). In addition, prior to reperfursion with CO, SB203580 (20 μM) was added to the perfusate.

For series [2], the system named is Louvain rats immunized with collagen type II. The series can be described thus: Rat collagen-arthritis model. It counts as in vivo. On the set-up: arthritic score / Arthritis Score / X-Ray Score: scale not given here. Conditions: for structural damage by blinded radiographic scores: day 28; for efficacy in comparison with methylene chloride (RB2000): rat collagen arthritis model, arthritic score; for arthritic scores in comparison to methylene chloride treated rats: rat, in vivo. The method, then:
To assess the therapeutic potential of methylene chloride as a carbon-monoxide generating compound in this disease model, female Louvain rats weighing between 120 and 150 g were injected intradermally with 0.5 mg native chicken collagen type II solubilized in 0.1M acetic acid and emulsified in incomplete Freund's adjuvant. At the onset of disease (around day 10) animals were divided into three groups. One group was treated daily with vehicle, the second and third groups with 100 mg/kg/day and 500 mg/kg/day methylene chloride (p.o.). Severity of disease was evaluated daily using a quantification method based on standardized levels of swelling and periarticular erythema. Animals were sacrificed on day 28. […] Compared to control animals these differences were statistically significant (p<0.02).
(§1) Iodoform and bromoform were compared with methylene chloride as alternative carbon monoxide generating compounds, using the rat collagen arthritis model described in Example 6 above. Briefly, arthritis was induced in a Lovain strain of rats by immunizing the animals with Collagen Type II in Incomplete Freund's Adjuvant. Digitized radiographs were obtained at the completion of the study on day 28. Pharmacokinetics were also determined and the synovial tissue from the inflamed joints of the treated animals was harvested on Day 16 or Day 28 post-immunization. Disease systems were generally evident by Day 10.

The nature of series [3]: Blood carboxyhemoglobin after alkyl halide administration. The following applies: 100 mg/kg. It counts as in vivo. The method, then: The ability of the trihalomethanes iodoform and bromoform to act as carbon monoxide generating compounds was assayed in comparison with methylene chloride.
The next series has as its system TNF. The experiment in a line: Quantitative RT-PCR of cytokine mRNA in collagen-arthritis rats, TNF. The format is in vivo, rat. Conditions: Day 28. The method, then:
as §1
(§2) Carboxyhemoglobin levels peaked within a few hours of administration but normalized within 24 hours without cumulative pharmacokinetic consequences. Messenger RNA (mRNA) from the treated animals was purified and specific mRNA levels for cytokines TNF, IL-6, and IFN-γ were quantitated by Quantitative RT-PCR.

The next series concerns IL-6. The series can be described thus: Quantitative RT-PCR of cytokine mRNA in collagen-arthritis rats, IL-6. The following applies: rat, in vivo. On the procedure:
as §1, §2

A further series relates to IFN-γ. The experiment in a line: Quantitative RT-PCR of cytokine mRNA in collagen-arthritis rats, IFN-γ. The following applies: rat, in vivo. The method, then:
as §1, §2

The subject of series [4] is rat liver. The series can be described thus: Histologic severity of I/R injury, Banff criteria. On the set-up: species or system Sprague Dawley (SD) rats. The following applies: CO plus inhibitor, 2 h perfusion; scale 1-4. From the text: Histology. Liver specimens were fixed in a 10% buffered formalin solution and embedded in paraffin. Sections were made at 4 μm and stained with H&E. The histologic severity of I/R injury was graded using International Banff Criteria (Int'l Banff Schema Conference Worksheet, The Third Int'l Banff Conference on Allograft Pathology, June 21-25 (1995)). Using these criteria, lobular disarray and ballooning changes are graded from 1-4, where no change is given a score of 1 and severe disarray or ballooning changes are given a score of 4.

Series [5] concerns HO-1. The experiment in a line: HO-1 enzymatic activity in liver homogenates. It counts as biochemical, rat. Conditions: liver after perfusion; ZnPP = 1.5 mg/kg i.p. 24 h before harvest then CO perfusion; CO = CO only. The method, then: HO-1 Enzymatic Activity. Livers were homogenized on ice in a Tris-HCl lysis buffer (pH 7.4) containing 0.5% Triton X-100 and protease inhibitors. Samples were frozen in small aliquots until use. Homogenates (100 μl) were mixed with 0.8 mM NADPH, 0.8 mM glucose-6-phosphate 1.0 unit G-60P dehydrogenase, 1 mM MgCl2 and […] purified rat liver biliverdin reductase at 4° C. The reaction was initiated by the addition of hemin (final concentration 0.25 mM). The reaction mixture was incubated at 37° C. in the dark for 15 min. At the end of incubation period, any insoluble material was removed by centrifugation and supernatants were analyzed for bilirubin concentration. An extinction coefficient of 40 mM^−1 cm^−1 at A 460-530 was used to calculate the amount of bilirubin formed. Controls included naive samples in the absence of the NADPH generating system and all the ingredients of the reaction mixture in the absence of graft homogenates. Biliverdin reductase was purified from rat liver, as described in Browne and Ultrich, Mol. Pharmacol. 32:497-504 (1987).

Series [6] deals with HO-1. The experiment in a line: ELISA for HO-1 protein expression in liver. Further details: species or system rat. Conditions: ZnPP = pretreatment then CO perfusion; CO = CO only. On the procedure:
ELISA for HO-1 protein expression. Livers were homogenized on ice in a Tris-HCl lysis buffer (pH 7.4) containing 0.5% Triton X-100 and protease inhibitors. Flat-bottom microtiter 96-well plates (Nunc) were coated with 7 μg/ml anti-HO-1 mAb (OSA-111, Stressgen, Canada) in PBS for 18 h at room temperature. Unbound Ab was removed by washing (wash buffer: 0.05% Tween 20 in 50 mM phosphate buffer, pH 7.5) and remaining binding sites were blocked by incubation with a 5% BSA/PBS solution (1 h). Recombinant HO-1 (SPP-730) and tissue homogenate were diluted in assay diluent (0.5% BSA/0.05% Tween 20/PBS) and incubated in anti-HO-1 mAb coated wells for 1 h at room temperature. Subsequently, plates were washed three times with wash buffer and incubated with rabbit anti-HO-1 polyclonal antibody (SPA-895, Stressgen; diluted 1:1000 in assay diluent) for 30 min at room temperature. Bound rabbit IgG was detected with a donkey anti-rabbit (gG-HRP conjugate (711-035-152, Jackson Research Laboratories; diluted 1:8000 in assay diluent). Unbound secondary Ab was removed by washing and bound HRP was detected using 1 mg/ml OPD in substrate buffer (0.1% H2O2, 0.1 M citric acid, 0.2 M Na2HPO4, pH 5.0). The color reaction was stopped with 1 M HCl and the optical density at 490 nm was measured.
(In general: ELISA stands for enzyme-linked immunosorbent assay.)

In the next series the test system is Lewis rats. The experiment in a line: Experimental autoimmune encephalomyelitis (EAE) model of multiple sclerosis. It counts as in vivo, rat. Conditions: daily oral administration from day 8 post-inoculation; scale 0 to 3. On the procedure: Multiple sclerosis is characterized by an autoimmune and inflammatory response directed against myelin sheath and oligodendrocytes, resulting in demyelination in the central nervous system. A well-established animal model of multiple sclerosis, experimental autoimmune encephalomyelitis (EAE), was used to examine the effect of the subject alkyl halides on this autoimmune and inflammatory condition of the central nervous system. Lewis rats were given intradermal footpad injections of 50 μg guinea pig myelin basic protein (MBP) and complete Freund's adjuvant (CFA) to induce experimental allergic encephalomyelitis (EAE). Daily oral administration of vehicle, methylene chloride or iodoform was started on day 8 post-inoculation and continued to the end of the study. Animals were monitored and scored on a 0 (normal) to 3 (complete hindlimb paralysis) scale. Daily mean±SD clinical scores are shown.

As for `COC(=O)[C@@H](N)CCCN=C(N)N[N+](=O)[O-].Cl` [L-NAME, NG-nitro-L-arginine methyl ester hydrochloride], in the series with rat liver [1], the bile production entry was “increase in bile production”, the portal vein resistance result was “decrease in portal vein resistance” and the sGOT release is 191±16 IU/L.
On the same counts, the results for `C[S+]([O-])c1ccc(-c2nc(-c3ccncc3)c(-c3ccc(F)cc3)[nH]2)cc1` (centres unmarked) [SB203580] are “significantly less bile”, “significant increase in portal vein resistance” and 352±21 IU/L.
In the case of `BrC(Br)Br` [bromoform], in [2] (Day 28, dose 250 mg/kg), the “Arthritis Score” value is reported as 5.5 ± 0.86 and the “X-Ray Score” value is given as 2.75 ± 0.81. In series [2], the “structural damage by blinded radiographic scores” value is recorded as “significantly inhibited structural damage”, the “efficacy in comparison with methylene chloride (RB2000)” value was “superior efficacy” and the “arthritic scores in comparison to methylene chloride treated rats” value is reported as “significantly lower”. The “COHb level in comparison with the same amount of methylene chloride” value in [3] is “higher COHb level”. For the same molecule, the “mRNA levels for TNF compared to methylene chloride treated rats” value in the series on TNF was “higher”. In addition, the “mRNA levels for IL-6 compared to methylene chloride treated rats” value with IL-6 was “substantially lower”. Moreover, the “mRNA levels for IFN-γ compared to methylene chloride treated rats” value with IFN-γ is reported as “substantially lower”.
In the case of `C=CC1=C(C)c2cc3[n-]c(cc4[n-]c(cc5nc(cc1n2)C(C)=C5C=C)c(C)c4CCC(=O)O)c(CCC(=O)O)c3C.[Zn+2]` [ZnPP], in the series on rat liver [1], the bile production entry is recorded as “increased bile production”, the portal vein resistance result is recorded as “decreased portal vein resistance” and the sGOT release was determined as 202±11 IU/L. In addition, in the series with rat liver [4], the “Banff score of I/R injury” value is given as 1.5±0.0. Besides, the HO-1 enzyme activity in the series on HO-1 [5] is 0.95±0.06 nmol of bilirubin/mg/protein/min. For the same molecule, the “HO-1 protein expression in liver samples (ELISA)” value in the series with HO-1 [6] is 0.85±0.62 ng of HO-1/mg lysate.
On to `IC(I)I` [iodoform], for which, in series [2] (Day 28, dose 100 mg/kg), the “Arthritis Score” value is listed as 3.62 ± 0.99 and the “X-Ray Score” value is listed as 1.50 ± 0.80. Further, in series [2] (Day 28, dose 175 mg/kg), the “Arthritis Score” value amounted to 3.16 ± 0.99 and the “X-Ray Score” value came to 1.90 ± 0.64. Also, in series [2] (Day 28, dose 250 mg/kg), the “Arthritis Score” value was 1.85 ± 0.91 and the “X-Ray Score” value worked out at 0.85 ± 0.45. In series [2], the “structural damage by blinded radiographic scores” value is given as “significantly inhibited structural damage”, the “efficacy in comparison with methylene chloride (RB2000)” value is reported as “superior efficacy” and the “arthritic scores in comparison to methylene chloride treated rats” value is “significantly lower”. The “COHb level in comparison with the same amount of methylene chloride” value in [3] is on record as “higher COHb level”. The “mRNA levels for TNF compared to methylene chloride treated rats” value in the series with TNF is recorded as “higher”. The “mRNA levels for IL-6 compared to methylene chloride treated rats” value in the series with IL-6 is on record as “substantially lower”. Also, the “mRNA levels for IFN-γ compared to methylene chloride treated rats” value with IFN-γ was “substantially lower”. Further, the “clinical score / clinical signs” value in the series with Lewis rats is “did not display any clinical signs”.
Consider `O=C1C(Nc2ccccc2)=CC(=O)c2ncccc21` [LY-83583, 6-anilino-5,8-quinalinedone], for which, in the series with rat liver [1], the bile production entry is “comparable”, the portal vein resistance result is “slightly increased” and the sGOT release was 186±21 IU/L.
